Assay results: ChEMBL document CHEMBL4814073, “Ring-opening of five-membered heterocycles conjugated 4-isopropylresorcinol scaffold-based benzamides as HSP90 inhibitors suppressing tumor growth in vitro and in vivo” (Eur J Med Chem, 2021)

What was measured:
A549 = assay: Antiproliferative activity against human A549 cells assessed as growth inhibition incubated for 48 hrs by Sulforhodamine B assay; assay type: functional
Hep 3B2 = assay: Antiproliferative activity against human Hep3B cells assessed as growth inhibition incubated for 48 hrs by Sulforhodamine B assay; assay type: functional
MDA-MB-231 = assay: Antiproliferative activity against human MDA-MB-231 cells assessed as growth inhibition incubated for 48 hrs by Sulforhodamine B assay; assay type: functional
[1] = Antiproliferative activity against human HUVEC cells assessed as growth inhibition incubated for 48 hrs by Sulforhodamine B assay; assay type: cell-based
661W = assay: Cytotoxicity against mouse 661W cells by MTT based vision related toxicity assay; assay type: cell-based
HCT-116 = assay: Antiproliferative activity against human HCT116 cells assessed as growth inhibition incubated for 48 hrs by Sulforhodamine B assay; assay type: functional
Heat shock protein HSP90 = Heat shock protein HSP90 (Homo sapiens, UniProt P07900+P08238); assay: Inhibition of HSP90 (unknown origin) assessed as competition of fluorescently labelled geldanamycin binding after 2 hrs by microplate reader analysis; assay type: protein assay
in vitro = conditions: human, HUVEC cells versus A549 cells
Description: Therapeutic index, ratio of IC50 for HUVEC cells to IC50 for human A549 cells

[2] = Apparent permeability across basolateral to apical in human Caco2 cells by LC-MS/MS analysis; assay type: ADME, cell-based; conditions: Caco-2

Compound CC(C)c1cc(C(=O)Nc2ccncc2)c(O)cc1O has a GI50 (A549) greater than 10 µM.
CC(C)c1cc(C(=O)N(c2cccnc2)C(C)C)c(O)cc1O showed a GI50 (A549) of 0.26 µM.
In the case of CCCN(C(=O)c1cc(C(C)C)c(O)cc1O)c1ccc2[nH]ccc2c1, the GI50 (A549) is reported as 0.14 µM.
In the case of COc1c(C)cnc(Cn2cnc3c(Cl)nc(N)nc32)c1C [BIIB021], the GI50 (Hep 3B2) is reported as 0.24 µM, the GI50 (MDA-MB-231) is reported as 0.24 µM and the GI50 at 48 h [1] is reported as 1.42 µM. For the same compound, the Activity (661W) was greater than 10 µM.
For CC(C)c1cc(C(=O)N(C)c2ccc3[nH]ccc3c2)c(O)cc1O, the GI50 (A549) was 0.17 µM, the GI50 (HCT-116) was 1 µM and the GI50 (Hep 3B2) was 0.18 µM. It also gave a GI50 (MDA-MB-231) of 0.07 µM, a GI50 at 48 h [1] of 0.57 µM and an IC50 (Heat shock protein HSP90) of 0.115 µM. It also gave a selectivity ratio (in vitro) of 3.4.
In the case of CC(C)c1cc(C(=O)Nc2ccc3[nH]ccc3c2)c(O)cc1O, the GI50 (A549) is reported as greater than 10 µM.
Work on COC1=C2C[C@@H](C)C[C@H](OC)[C@H](O)[C@@H](C)/C=C(\C)[C@H](OC(N)=O)[C@@H](OC)/C=C\C=C(/C)C(=O)NC(=CC1=O)C2=O [GELDANAMYCIN] yielded an Activity (661W) of 1.65 µM.
For CC(C)c1cc(C(=O)N(C)c2ccc3c(ccn3C)c2)c(O)cc1O, the GI50 (A549) was 0.28 µM, the GI50 (HCT-116) was 0.7 µM and the GI50 (Hep 3B2) was 0.57 µM. The GI50 (MDA-MB-231) was 0.1 µM, the GI50 at 48 h [1] was 0.82 µM and the IC50 (Heat shock protein HSP90) was 0.105 µM. The selectivity ratio (in vitro) was 2.9.
With CCCN(C(=O)c1cc(C(C)C)c(O)cc1O)c1ccncc1 the GI50 (A549) was 0.37 µM.
With CCN(C(=O)c1cc(C(C)C)c(O)cc1O)c1ccncc1 the GI50 (A549) was 0.12 µM, the GI50 (HCT-116) was 0.64 µM and the GI50 (Hep 3B2) was 0.1 µM. The GI50 (MDA-MB-231) was 0.08 µM, the GI50 at 48 h [1] was less than 0.1 µM and the IC50 (Heat shock protein HSP90) was 0.109 µM. It also gave a selectivity ratio (in vitro) of 0.8.
In the case of CC(C)c1cc(C(=O)N(c2ccncc2)C(C)C)c(O)cc1O, the GI50 (A549) is reported as 0.19 µM.
C=CCNC1=C2C[C@@H](C)C[C@H](OC)[C@H](O)[C@@H](C)/C=C(\C)[C@H](OC(N)=O)[C@@H](OC)/C=C\C=C(/C)C(=O)NC(=CC1=O)C2=O [TANESPIMYCIN] showed a GI50 (A549) of 0.08 µM, a GI50 (HCT-116) of 0.34 µM and a GI50 (Hep 3B2) of 0.08 µM. It also gave a GI50 (MDA-MB-231) of 0.27 µM, a GI50 at 48 h [1] of less than 0.1 µM and an Activity (661W) greater than 10 µM.
CCNC(=O)c1noc(-c2cc(C(C)C)c(O)cc2O)c1-c1ccc(CN2CCOCC2)cc1 [LUMINESPIB] gave an Activity (661W) of 0.04 µM.
With CC(C)c1cc(C(=O)N(c2ccc3[nH]ccc3c2)C(C)C)c(O)cc1O the GI50 (A549) was 0.21 µM.
CCN(C(=O)c1cc(C(C)C)c(O)cc1O)c1ccc2[nH]ccc2c1 showed a GI50 (A549) of 0.11 µM, a GI50 (HCT-116) of 0.37 µM and a GI50 (Hep 3B2) of 0.11 µM. For the same compound, the GI50 (MDA-MB-231) was 0.08 µM, the GI50 at 48 h [1] was less than 0.1 µM and the IC50 (Heat shock protein HSP90) was 0.117 µM. The selectivity ratio (in vitro) was 0.9.
Compound CCCN(C(=O)c1cc(C(C)C)c(O)cc1O)c1ccc2c(ccn2C)c1 has a GI50 (A549) of 0.3 µM.
CC(C)c1cc(C(=O)Nc2cccnc2)c(O)cc1O showed a GI50 (A549) greater than 10 µM.
In the case of COC(=O)c1ccccc1-c1c2ccc(=N)cc-2oc2cc(N)ccc12.Cl [RHODAMINE123], the permeability [2] is reported as 8.04 10^-6 cm/s.
Work on CC(C)c1cc(C(=O)Nc2ccc3c(ccn3C)c2)c(O)cc1O yielded a GI50 (A549) greater than 10 µM.
CCN(C(=O)c1cc(C(C)C)c(O)cc1O)c1ccc2c(ccn2C)c1 gave a GI50 (A549) of 0.08 µM.
Work on CC(C)c1cc(-c2n[nH]c(=O)n2-c2ccc3c(ccn3C)c2)c(O)cc1O [GANETESPIB] yielded an Activity (661W) greater than 10 µM.
Work on CCCN(C(=O)c1cc(C(C)C)c(O)cc1O)c1cccnc1 yielded a GI50 (A549) of 0.39 µM.
